Test results: US9744145B1, “Methods for treating lung cancer” (Macau University of Science and Technology, priority 2017, dated 2017)

What was measured:
H1975 cells = experiment: Apoptosis assay, Annexin V/PI flow cytometry, H1975; format: cell-based; conditions: 24, 48 and 72 hours, vs control group
Experimental: (§1) A549 and H1975 cells (1×10^5 cells/well) were seeded in a well plate with 6 wells for 24 hours, and treated with the indicated concentrations of formula I for an additional 24 hours, 48 hours and 72 hours at 37° C. After indicated hours, the cells were washed by ice-cold 1×PBS once and harvested by trypsination. Then cells were centrifuged, collected, and resuspended in ice-cold 1×PBS. After removing the supernatants, cell pellets were re-suspended in 100 μL 1×Annexin-binding buffer. The cells were then double-stained with Annexin-V FITC and PI (100 μg/mL) of 2 μL respectively for 15 min at room temperature in dark. After that, 300 μL 1× Annexin-binding buffer was added. Apoptotic cells were quantitatively counted by a BD Aria III Flow Cytometer (BD Biosciences, San Jose, Calif., USA)

A549 cells = experiment: Apoptosis assay, Annexin V/PI flow cytometry, A549; format: cell-based; conditions: 24, 48 and 72 hours, vs control group
Experimental: as §1

[1] = test system: PKM2 phosphorylation / AKT pathway in H1975 cells; experiment: Western blot analysis, H1975; format: cell-based
Experimental: (§2) After incubation A549 and H1975 cells with formula I for 24 hours and 72 hours, A549 and H1975 cells were harvested and washed with cold 1×PBS. Then, cells were lysed with ice-cold RIPA lysis buffer with protease, and phosphatase inhibitors were added to extract the cell protein extraction. The supernatants were collected by centrifugation at 12,000 g, for 5 minutes. The quantitation of total protein extraction was measured by Bio-Rad DCTM protein assay kit (Bio-Rad, Philadelphia, Pa., USA). Then 30 μg of protein were loaded and electrophoretically separated on 8% SDS-PAGE gel and then transferred to Nitrocellulose (NC) membrane. Membranes were blocked with 5% non-fat milk and […] containing 0.1% Tween-20 (TBST) for 1 hour at room temperature. After 1 hour, membranes were incubated with primary anti-bodies (1:1000 dilution) against β-actin, total/phosphor-PKM2, total/phosphor-AKT, and BCL-2 at 4° C. with gently shaking overnight. Membranes were washed with TBST for 3 times (5 minutes/time), and incubated with secondary fluorescent antibody (1:10000 dilutions) for 1 hour at room temperature. Rewashing with TBST for 3 times (15 minutes/time), the stripes were visualized by LI-COR Odessy scanner (Belfast, Me., USA).

PKM2 enzyme = PKM2 enzyme (Homo sapiens, UniProt P14618); experiment: PKM2 enzyme activity assay (KINASE GLO Plus); format: biochemical
Chain of PKM2 enzyme (P14618 whole entry): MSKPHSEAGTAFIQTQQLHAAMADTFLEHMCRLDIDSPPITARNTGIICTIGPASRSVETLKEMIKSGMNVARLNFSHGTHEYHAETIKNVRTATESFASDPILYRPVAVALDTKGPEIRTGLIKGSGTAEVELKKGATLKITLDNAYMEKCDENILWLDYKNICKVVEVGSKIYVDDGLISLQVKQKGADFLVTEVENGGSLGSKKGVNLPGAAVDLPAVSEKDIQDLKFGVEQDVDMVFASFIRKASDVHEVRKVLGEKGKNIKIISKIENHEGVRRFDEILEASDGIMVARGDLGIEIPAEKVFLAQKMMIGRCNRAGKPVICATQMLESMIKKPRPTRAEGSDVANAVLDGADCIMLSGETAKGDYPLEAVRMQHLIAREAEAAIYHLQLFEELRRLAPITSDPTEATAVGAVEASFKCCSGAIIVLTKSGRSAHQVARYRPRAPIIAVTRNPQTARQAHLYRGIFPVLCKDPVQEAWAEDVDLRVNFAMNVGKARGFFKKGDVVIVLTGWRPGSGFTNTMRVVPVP
Experimental: 5. PKM2 Enzyme Activity Assay
PKM2 biochemical assay Compounds were pre-incubated with 2 nmol/L PKM2 enzyme in reaction buffer (50 mmol/L Tris-HCl, pH 8.0, 200 mmol/L KCl, 30 mmol/L MgCl2, 2 mmol/L dithiothreitol (DTT), 5% DMSO) for 30 minutes at room temperature. ADP and PEP were then added to final concentrations of […] and 15 mmol/L, respectively. After 30 minutes, ATP formation was measured by KINASE GLO® Plus from Promega, and Concentration at half-maximal activation (AC50) values were determined using Prism GraphPad Software.
PKM2 enzyme activity assay over the concentration of formula I was performed in KINASE GLO® Plus assay. The controls were conducted in the presence of 5% Dimethyl sulfoxide (DMSO) and normalized to 100%±SD. […] (n=3, **p<0.005, ***p<0.001). […] The maximum PKM2 enzyme activity was more than 200% compared to that in controls.

[2] = test system: PKM2 phosphorylation / AKT pathway in A549 cells; experiment: Western blot analysis, A549; format: cell-based
Experimental: as §2

- AC50 (PKM2 enzyme; 2 nmol/L PKM2, KINASE GLO Plus, n=3, read-out: AC50 (concentration at half-maximal activation)): 5.5 ± 1 µM
- maximum PKM2 enzyme activity compared to controls (PKM2 enzyme; controls with 5% DMSO normalized to 100%): more than 200%
Compound: O=S(=O)(Nc1ccccc1)c1ccc(-c2ccc(S(=O)(=O)Nc3ccccc3)cc2)cc1 [formula I]
- apoptosis level (H1975 cells): induced significant level of apoptosis in a concentration-dependent manner
- apoptosis level (A549 cells): induced significant level of apoptosis in a concentration-dependent manner
- AKT pathway [1]: selectively inhibited AKT pathway
- PKM2 phosphorylation ([1]; β-actin loading control): activated phosphorylation of both PKM2 in a dose-dependent manner
- AKT pathway [2]: selectively inhibited AKT pathway
- PKM2 phosphorylation ([2]; β-actin loading control): activated phosphorylation of both PKM2 in a dose-dependent manner
